Measured values: paper PMC10466331, “Fluorescence polarisation activity-based protein profiling for the identification of deoxynojirimycin-type inhibitors selective for lysosomal retaining alpha- and beta-glucosidases” (Chemical Science, 2023)
Read-outs that look alike come from different tables or passages of the source.

How the values were obtained:
[1] = molecular target: T1, recombinant human GAA (rhGAA, Myozyme) (Homo sapiens, UniProt P10253); assay: competitive FluoPol-ABPP assay on rhGAA with TAMRA-ABP II; assay type: biochemical; settings: library screen, 5 μM inhibitor, 25 nM ABP II;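 also: fluorescence polarization read at 540 nm excitation and 590 nm emission, background-corrected, normalized to uninhibited probe labelling as 100% and excess cyclosulfate as 0%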
T1 construct: purchased Genzyme

[2] = tested on: glucosylceramide synthase (GCS) (RAW 264.7 cells); settings: in situ; cited from earlier work
[3] = tested on: GBA2 (GBA2-overexpressing HEK293T lysate); settings: cited from earlier work
[4] = molecular target: T2, human recombinant lysosomal α-glucosidase GAA (Myozyme) (Homo sapiens, UniProt P10253); assay: fluorogenic substrate (4MU-α-D-glucopyranoside) assay on rhGAA; assay type: biochemical; settings: Table S2, 4-MU alpha glucoside substrate, read-out: IC50 on rhGAA
T2 construct: purchased Genzyme

[5] = tested on: rhGBA1 (Cerezyme); settings: read-out: IC50 GBA1; cited from earlier work
[6] = molecular target: T3, ER α-glucosidase GANAB (from Pompe disease Fibroblast lysates) (Homo sapiens, UniProt Q14697); assay: fluorogenic substrate (4MU-α-D-glucopyranoside) assay on GANAB in Pompe fibroblast homogenates; assay type: biochemical;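 also: inhibitor preincubated 30 min at 37 °C with homogenate, then GANAB activity read after 2 h with 3.0 mM fluorogenic substrate in McIlvaine buffer containing 0.1% BSA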
T3 construct: Cellular homogenates of Pompe fibroblasts (1 mg mL^−1) were used as protein source for GANAB; endogenous in cells; host or cells: Pompe disease fibroblasts (homogenate)
T3 sequence (Q14697 29-944): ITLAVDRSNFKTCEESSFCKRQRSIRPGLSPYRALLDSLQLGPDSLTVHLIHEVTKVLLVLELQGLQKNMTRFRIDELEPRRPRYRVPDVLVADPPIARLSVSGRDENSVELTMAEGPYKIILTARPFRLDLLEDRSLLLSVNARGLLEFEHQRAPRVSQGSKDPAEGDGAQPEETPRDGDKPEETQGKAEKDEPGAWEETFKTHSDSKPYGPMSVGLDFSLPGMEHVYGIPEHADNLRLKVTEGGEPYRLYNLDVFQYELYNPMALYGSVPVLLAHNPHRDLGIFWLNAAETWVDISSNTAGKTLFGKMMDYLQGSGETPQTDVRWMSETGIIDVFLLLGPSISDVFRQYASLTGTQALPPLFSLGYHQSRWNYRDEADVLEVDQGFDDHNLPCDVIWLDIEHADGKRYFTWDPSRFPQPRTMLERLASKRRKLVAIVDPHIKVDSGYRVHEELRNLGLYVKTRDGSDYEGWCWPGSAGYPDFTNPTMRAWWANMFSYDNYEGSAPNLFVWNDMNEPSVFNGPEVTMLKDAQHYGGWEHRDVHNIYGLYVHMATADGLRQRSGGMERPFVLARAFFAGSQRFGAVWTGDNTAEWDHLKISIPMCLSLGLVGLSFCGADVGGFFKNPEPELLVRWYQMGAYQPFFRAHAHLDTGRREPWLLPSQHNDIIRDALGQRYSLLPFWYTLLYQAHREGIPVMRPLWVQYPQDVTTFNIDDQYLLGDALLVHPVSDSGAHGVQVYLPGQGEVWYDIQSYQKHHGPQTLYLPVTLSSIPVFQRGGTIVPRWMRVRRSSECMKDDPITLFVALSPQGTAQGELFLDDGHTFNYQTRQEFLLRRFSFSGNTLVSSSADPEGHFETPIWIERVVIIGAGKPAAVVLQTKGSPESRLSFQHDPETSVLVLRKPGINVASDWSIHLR
T3 sequence (P14314 15-528 partner): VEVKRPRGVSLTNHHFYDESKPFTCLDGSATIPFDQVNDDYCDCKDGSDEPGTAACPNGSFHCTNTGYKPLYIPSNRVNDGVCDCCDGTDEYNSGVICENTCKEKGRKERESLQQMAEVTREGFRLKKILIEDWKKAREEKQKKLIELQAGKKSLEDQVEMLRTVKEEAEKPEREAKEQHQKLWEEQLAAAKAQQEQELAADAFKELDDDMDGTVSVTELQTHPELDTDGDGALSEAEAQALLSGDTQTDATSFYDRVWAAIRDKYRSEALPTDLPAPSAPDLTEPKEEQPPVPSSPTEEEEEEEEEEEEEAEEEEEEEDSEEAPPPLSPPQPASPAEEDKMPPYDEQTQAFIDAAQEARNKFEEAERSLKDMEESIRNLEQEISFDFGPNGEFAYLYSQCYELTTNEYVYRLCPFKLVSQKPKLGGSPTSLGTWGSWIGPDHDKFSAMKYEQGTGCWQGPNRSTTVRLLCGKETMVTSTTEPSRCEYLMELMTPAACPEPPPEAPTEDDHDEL

[7] = molecular target: T4, recombinant human GBA1 (rhGBA1, Cerezyme) (Homo sapiens, UniProt P04062, R534H); assay: competitive FluoPol-ABPP assay on rhGBA1 with TAMRA-ABP I; assay type: biochemical; settings: library screen, 5 μM inhibitor, 5 nM ABP I
T4 construct: purchased Genzyme
T4 sequence (P04062 40-536 R534H): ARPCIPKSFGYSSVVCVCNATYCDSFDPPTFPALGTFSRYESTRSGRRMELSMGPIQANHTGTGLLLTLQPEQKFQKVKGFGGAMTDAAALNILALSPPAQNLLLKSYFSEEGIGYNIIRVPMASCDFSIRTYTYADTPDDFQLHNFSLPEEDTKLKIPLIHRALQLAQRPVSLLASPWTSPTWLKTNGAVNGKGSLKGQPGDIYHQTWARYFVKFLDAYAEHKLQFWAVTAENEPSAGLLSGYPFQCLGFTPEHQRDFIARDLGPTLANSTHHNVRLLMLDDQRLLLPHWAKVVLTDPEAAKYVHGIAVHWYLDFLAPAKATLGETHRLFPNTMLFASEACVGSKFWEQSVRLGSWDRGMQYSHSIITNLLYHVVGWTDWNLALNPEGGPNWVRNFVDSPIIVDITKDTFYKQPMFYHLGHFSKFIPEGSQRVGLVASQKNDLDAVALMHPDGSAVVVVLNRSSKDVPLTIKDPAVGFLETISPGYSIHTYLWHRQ

[8] = tested on: retaining β-glucosidases GBA1, GBA2 and GBA3; assay: SDS-gel activity-based protein profiling (in-gel fluorescence labelling); assay type: biochemical; settings: 500 nM probe, 30 min 37 °C
Procedure: Lysates of HEK293T GBA2 overexpressing and HEK293T GBA3 overexpressing cells[24] were prepared in 150 mM McIlvain buffer (pH = 5.0), supplemented with 0.25 M sucrose, 0.2% sodium taurocholate (w/v) and 0.1% Triton X-100 (v/v). The lysates were homogenized using sonication, after which the total protein concentration was determined via Pierce BCA Protein assay (ThermoFisher) using BSA (ThermoFisher) for standards. Samples (Vf = 20 μL) of an 1 : 1 mixture of GBA2 : GBA3 lysates containing 40 μg protein were incubated for 30 min at 37 °C with 500 nM ABP. Protein content was denatured using Laemmli Buffer (4×) at 98 °C for 5 min. Reactions were resolved by 7.5% SDS-PAGE electrophoresis and wet slabs were scanned for fluorescence (Typhoon FLA 9500, GE Healthcare).

[9] = 4MU-α-glucoside substrate, pH 7.0, mean ± SD, 3 technical replicates, read-out: IC50 GANAB
[10] = Table S2, 4-MU alpha glucoside substrate, read-out: IC50 on GANAB

## OC[C@@H]1[C@@H](O)[C@H](O)[C@@H](O)CN1CCCCCOCc1cc2ccccc2c2ccccc12 [Compound 15]
[1]
  GAA FP% (residual FP-signal): 25%
[2]
  IC50: > 20000 nM
[3]
  IC50: 100 nM
[4]
  IC50: 110 nM
[5]
  IC50: 10000 nM
[6]; [9]
  IC50: 1960 ± 40 nM
[6]; [10]
  IC50: 2000 nM

## OC[C@H]1N[C@H](CCCCCOCC23CC4CC(CC(C4)C2)C3)[C@H](O)[C@@H](O)[C@@H]1O [Compound 14]
[1]
  GAA FP% (residual FP-signal): 34%
[2]
  IC50: 50000 nM
[3]
  IC50: 300 nM
[4]
  IC50: 4000 nM
[5]
  IC50: 70 nM
[6]; [9]
  IC50: > 100000 nM

## OC[C@H]1N[C@H](CCCCCCOCC23CC4CC(CC(C4)C2)C3)[C@H](O)[C@@H](O)[C@@H]1O [Compound 8]
[1]
  GAA FP% (residual FP-signal): 29%
[7]
  inhibition at 5 µM: > 90%
[4]
  IC50: 2460 nM

## O[C@@H]1[C@@H](O)[C@@H](CCCCCCOCC23CC4CC(CC(C4)C2)C3)NC[C@H]1O [Compound 7]
[7]
  inhibition at 5 µM: > 90%

## COC(=O)c1cc(C(=O)NCCCCc2cn(C[C@@H]3[C@@H](O)[C@H](O)[C@@H](O)[C@@H]4O[C@H]34)nn2)ccc1-c1c2ccc(=[N+](C)C)cc-2oc2cc(N(C)C)ccc12 [ABP I]
[8]
  β-glucosidase labelling selectivity of the probe: modifies exclusively GBA1

## OC[C@@H]1[C@@H](O)[C@H](O)[C@@H](O)CN1CCCCCOCc1ccc2ccccc2c1 [#ID 58]
[1]
  GAA FP% (residual FP-signal): 7.7%
[4]
  IC50: 250 nM
[6]; [10]
  IC50: 850 nM

## OC[C@@H]1[C@@H](O)[C@H](O)[C@@H](O)CN1CCCCCOCc1ccc(-c2cncnc2)cc1 [#ID 320]
[1]
  GAA FP% (residual FP-signal): 1.0%
[4]
  IC50: 82 nM
[6]; [10]
  IC50: 1300 nM

## CCCCOCCCCCN1C[C@H](O)[C@@H](O)[C@H](O)[C@H]1CO [#ID 283]
[1]; listed as 283
  GAA FP% (residual FP-signal): 4.4%
[4]; listed as 283
  IC50: 720 nM
[6]; Table S2, 4-MU alpha glucoside substrate, listed as 283, read-out: IC50 on GANAB
  IC50: 4900 nM

## CCCCOCCCCCN1C[C@H](O)[C@@H](O)[C@H](O)[C@H]1CO [#ID 19]
[1]; listed as 19
  GAA FP% (residual FP-signal): 28%
[4]; listed as 19
  IC50: 350 nM
[6]; Table S2, 4-MU alpha glucoside substrate, listed as 19, read-out: IC50 on GANAB
  IC50: 3600 nM

## COc1ccc(-c2ccc(COCCCCCN3C[C@H](O)[C@@H](O)[C@H](O)[C@H]3CO)cc2)cc1 [#ID 305]
[1]
  GAA FP% (residual FP-signal): 0.3%
[4]
  IC50: 20 nM
[6]; [10]
  IC50: 380 nM

## CCCCCCCCN1C[C@H](O)[C@@H](O)[C@H](O)[C@H]1CO [#ID 286]
[1]; listed as 286
  GAA FP% (residual FP-signal): 9.1%
[4]; listed as 286
  IC50: 760 nM
[6]; Table S2, 4-MU alpha glucoside substrate, listed as 286, read-out: IC50 on GANAB
  IC50: 8500 nM

## Cc1ccccc1-c1ccc(COCCCCCN2C[C@H](O)[C@@H](O)[C@H](O)[C@H]2CO)cc1 [#ID 326]
[1]
  GAA FP% (residual FP-signal): 0.8%
[4]
  IC50: 12 nM
[6]; [10]
  IC50: 690 nM
